Experimental data from patent US20180311199A1, “COMBINATION TREATMENT FOR INFLAMMATORY DISEASES” (priority 2016, published 2018).

Tests used:
[1] = system: IL-6, IL-19, G-CSF, S100AB, and NAP-2; test: ELISA of cytokine proteins in culture supernatant of M5-treated primary human keratinocytes (psoriasis cell culture model); assay type: cell-based; conditions: of five gene products (IL-6, IL-19, G-CSF, S100AB, NAP-2), primary human keratinocytes + M5, 24 hours, diacerein 10 μM, infliximab 5 μg/ml
Description: Experiments were carried out to investigate the effect of combined anti-TNF-α (infliximab) and diacerein, an inhibitor for a pro-inflammatory cytokine interleukin-1, utilizing an in vivo-equivalent psoriasis cell culture system. This in vivo-equivalent model is generated by using a group of 5 different natural chemicals (M5: IL-17A, IL-22, Oncostatin-M, IL-1α, and TNF-α) on human epidermal cells keratinocytes, recapitulating the in vivo immune dysregulation as identified in vivo in the skin lesions of patients affected by psoriasis (Guilloteau et al., Skin Inflammation Induced by the Synergistic Action of IL-17A, IL-22, Oncostatin M, IL-1α, and TNF-α Recapitulates Some Features of Psoriasis. Journal of Immunology 2010; 184:5263-70). […]
After 24 hours of incubation, the culture media (supernatant) of the above 5 groups were collected and stored at −20° C. for ELISA experiments as the following: 50-100 μl of cell culture supernatant were assayed with commercially available ELISA kits for human cytokines according to the manufacturers' instructions (IL-6, IL-19, G-CSF, S100AB, and NAP-2). The data we collected determined that infliximab alone (group 3), diacerein alone (group 4), and combined infliximab and diacerein (group 5) partially or completely reverse the dysregulation effect of the 5 natural chemicals (M5) in five, three, and five genes, respectively. […]

[2] = system: pro-inflammatory genes regulated by M5; test: Inflammatory Response and Autoimmune PCR Array on RNA of M5-treated primary human keratinocytes; assay type: cell-based; conditions: diacerein 10 μM, infliximab 5 μg/ml; for number of genes in which the greatest effect was seen: of 48 genes partially or fully reversed by all three groups, keratinocytes + M5, 24 hours; for number of genes on which the effect of the five cytokines was partially or fully reversed: of 81 pro-inflammatory genes significantly (p<0.05) regulated at least 2-fold by M5, keratinocytes, 24 hours
Description: Experiments were carried out to investigate the effect of combined anti-TNF-α (infliximab) and diacerein, an inhibitor for a pro-inflammatory cytokine interleukin-1, utilizing an in vivo-equivalent psoriasis cell culture system. This in vivo-equivalent model is generated by using a group of 5 different natural chemicals (M5: IL-17A, IL-22, Oncostatin-M, IL-1α, and TNF-α) on human epidermal cells keratinocytes, recapitulating the in vivo immune dysregulation as identified in vivo in the skin lesions of patients affected by psoriasis (Guilloteau et al., Skin Inflammation Induced by the Synergistic Action of IL-17A, IL-22, Oncostatin M, IL-1α, and TNF-α Recapitulates Some Features of Psoriasis. Journal of Immunology 2010; 184:5263-70). Thus, this in vivo-equivalent model provides an excellent tool for the investigation of the combined effect of anti-TNF-α and diacerein on psoriasis.
The experiments were carried out in the following manner: Primary human keratinocytes (purchased from Invitrogen, Carlsbad, Calif.) Epilife culture medium supplemented with human keratinocyte growth supplement (Invitrogen) in standard humidified chamber (37° C., 5% CO2). When the cells reached 80% confluency, cells were divided into 5 groups for treatment: • 1). Cell culture medium alone, serving as a negative control • 2). Cell culture medium plus 5 natural chemicals (M5) • 3). Cell culture medium plus 5 natural chemicals (M5) and anti-TNF-alpha (infliximab) • 4). Cell culture medium plus 5 natural chemicals (M5) and diacerein • 5). Cell culture medium plus 5 natural chemicals (M5), anti-TNF-alpha (infliximab) and diacerein.
The above 5 groups were incubated at 37° C. for 24 hours.
The concentrations and commercial sources of the experiment components are: • IL-17 alpha (10 ng/ml, Life Technologies, Frederick, Md.) • IL-22 (10 ng/ml. Life Technologies, Frederick, Md.) • Oncostatin-M (10 ng/ml, Life Technologies, Frederick, Md.) • IL-1 alpha (10 ng/ml, Life Technologies, Frederick, Md.) • TNF-alpha ([…], Life Technologies, Frederick, Md.) • Diacerein (10 μM, Sigma Aldrich, Saint Louis, Md.) • Infliximab (Remicade®, an anti-TNF-alpha, 5 μg/ml, Jansen Biotech, Horsham, Pa.)
After 24 hours of incubation, the cultured cells were washed three times with sterile PBS (phosphate-buffered saline) and the RNAs were harvested with Trizol (Invitrogen) and the purity (A260/A280 ratio>1.8) was confirmed. Reverse transcription was performed with 1 micro gram RNA using first strand kit from Invitrogen according to manufacturer's instruction. 10 μl of mastermix (Qiagen, Valencia, Calif.) with the reversely transcribed cDNA were amplified using a real-time PCR machine (ViiA7 PCR, Applied Biosystems, Waltham, Pa.). Statistical analysis was performed with web-based Software. […]

Molecule | number of genes in which the dysregulation effect of the 5 natural chemicals (M5) is partially or completely reversed [1] | number of genes in which the greatest effect was seen [2] | number of genes on which the effect of the five cytokines was partially or fully reversed [2]
infliximab | five | 10 genes | 67 genes
CC(=O)Oc1cccc2c1C(=O)c1c(OC(C)=O)cc(C(=O)O)cc1C2=O [diacerein] | three | 17 genes | 61 genes
